The target of assay [1] is B-cell lymphoma 6 protein (Homo sapiens, UniProt P41182).
Assay [2] deals with BCL-6/NCOR2 (Homo sapiens, UniProt P41182). Type of assay: cell-based, HEK293T.
Description: Inhibition of C-terminal NanoLuc-fused BCL6 (unknown origin)/Halo-tagged SMRT (unknown origin) interaction transfected in HEK293T cells measured after 6 hrs by NanoBRET assay
For assay [3], the target named is BCL-6/NCOR2 (Homo sapiens) (UniProt Q9Y618+P41182). To be noted: HEK293T, time 6.0 hrs.

The structures appear in SMILES notation.

The term IC50 denotes the concentration that gives 50% inhibition. The low end stands for greater potency in that assay, the high end for weaker potency in that assay. A word on the IC90: it is the concentration needed for an effect of 90%. High values mean weaker potency, low ones greater potency.

Chain of BCL-6/NCOR2 (Homo sapiens) (Q9Y618 whole entry, looked up, other chains not shown): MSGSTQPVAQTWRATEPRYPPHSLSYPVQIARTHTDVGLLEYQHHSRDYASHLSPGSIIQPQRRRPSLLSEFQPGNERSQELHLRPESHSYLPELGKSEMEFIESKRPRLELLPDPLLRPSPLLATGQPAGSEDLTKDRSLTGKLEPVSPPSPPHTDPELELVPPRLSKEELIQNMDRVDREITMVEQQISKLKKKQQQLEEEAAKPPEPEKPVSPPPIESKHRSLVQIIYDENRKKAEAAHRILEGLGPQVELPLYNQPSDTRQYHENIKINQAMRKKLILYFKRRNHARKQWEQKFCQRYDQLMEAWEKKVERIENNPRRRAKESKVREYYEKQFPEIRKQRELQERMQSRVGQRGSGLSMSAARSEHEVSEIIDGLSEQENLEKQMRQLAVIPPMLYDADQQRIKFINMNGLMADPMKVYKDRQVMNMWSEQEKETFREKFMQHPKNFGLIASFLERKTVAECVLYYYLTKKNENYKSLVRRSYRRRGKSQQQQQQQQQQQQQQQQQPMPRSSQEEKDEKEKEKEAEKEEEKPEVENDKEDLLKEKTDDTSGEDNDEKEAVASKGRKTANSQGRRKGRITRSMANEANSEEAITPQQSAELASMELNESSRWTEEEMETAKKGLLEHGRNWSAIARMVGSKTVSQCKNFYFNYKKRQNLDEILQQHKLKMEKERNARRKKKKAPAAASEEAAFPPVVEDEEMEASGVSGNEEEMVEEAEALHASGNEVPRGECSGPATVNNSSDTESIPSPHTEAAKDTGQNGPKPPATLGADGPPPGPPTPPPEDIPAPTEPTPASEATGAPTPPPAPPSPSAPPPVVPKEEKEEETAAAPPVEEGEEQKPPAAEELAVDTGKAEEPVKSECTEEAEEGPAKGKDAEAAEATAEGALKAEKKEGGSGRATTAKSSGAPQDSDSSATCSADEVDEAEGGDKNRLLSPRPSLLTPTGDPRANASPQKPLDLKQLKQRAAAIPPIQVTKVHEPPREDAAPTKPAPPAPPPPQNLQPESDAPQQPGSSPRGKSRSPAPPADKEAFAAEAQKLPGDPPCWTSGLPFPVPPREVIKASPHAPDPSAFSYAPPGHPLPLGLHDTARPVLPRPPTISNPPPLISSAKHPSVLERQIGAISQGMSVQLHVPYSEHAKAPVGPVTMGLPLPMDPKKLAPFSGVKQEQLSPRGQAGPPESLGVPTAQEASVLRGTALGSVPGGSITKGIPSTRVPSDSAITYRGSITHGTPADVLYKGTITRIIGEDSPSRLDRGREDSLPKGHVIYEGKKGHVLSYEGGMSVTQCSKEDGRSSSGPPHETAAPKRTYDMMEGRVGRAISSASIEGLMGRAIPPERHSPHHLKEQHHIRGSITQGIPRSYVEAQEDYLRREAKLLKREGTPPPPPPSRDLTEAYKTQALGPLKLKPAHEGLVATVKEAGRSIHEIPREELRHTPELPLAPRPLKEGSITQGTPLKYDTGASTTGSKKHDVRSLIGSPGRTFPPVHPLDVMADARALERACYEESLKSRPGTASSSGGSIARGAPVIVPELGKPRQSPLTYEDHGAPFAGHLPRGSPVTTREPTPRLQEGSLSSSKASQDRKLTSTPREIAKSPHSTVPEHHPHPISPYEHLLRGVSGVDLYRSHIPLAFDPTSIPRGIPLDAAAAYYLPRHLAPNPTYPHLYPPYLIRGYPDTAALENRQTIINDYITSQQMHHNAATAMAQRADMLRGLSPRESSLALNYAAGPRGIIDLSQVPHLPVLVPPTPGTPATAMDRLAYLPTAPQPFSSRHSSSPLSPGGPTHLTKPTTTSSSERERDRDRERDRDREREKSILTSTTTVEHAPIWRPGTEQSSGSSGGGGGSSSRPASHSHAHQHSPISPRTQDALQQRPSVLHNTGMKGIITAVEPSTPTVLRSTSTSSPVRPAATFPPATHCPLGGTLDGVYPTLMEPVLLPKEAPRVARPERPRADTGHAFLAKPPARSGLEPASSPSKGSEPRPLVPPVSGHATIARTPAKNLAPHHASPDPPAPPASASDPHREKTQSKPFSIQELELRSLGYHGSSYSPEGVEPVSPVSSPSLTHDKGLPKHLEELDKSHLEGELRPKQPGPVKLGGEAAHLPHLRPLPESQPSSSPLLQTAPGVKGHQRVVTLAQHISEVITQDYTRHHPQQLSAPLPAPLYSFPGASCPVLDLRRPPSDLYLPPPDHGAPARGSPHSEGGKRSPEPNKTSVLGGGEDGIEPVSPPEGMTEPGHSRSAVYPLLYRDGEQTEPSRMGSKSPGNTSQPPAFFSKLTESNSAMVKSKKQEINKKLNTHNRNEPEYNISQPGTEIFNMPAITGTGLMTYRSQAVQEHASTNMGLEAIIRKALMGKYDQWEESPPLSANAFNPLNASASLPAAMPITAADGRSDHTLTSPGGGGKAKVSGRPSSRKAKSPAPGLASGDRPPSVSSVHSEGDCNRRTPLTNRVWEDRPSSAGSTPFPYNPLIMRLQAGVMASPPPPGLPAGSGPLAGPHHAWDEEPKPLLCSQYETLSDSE

With `CC(=O)N1CC2CCC(C1)N2c1ncc(Cl)c(Nc2ccc3c(c2)c2c(c(=O)n3C)OCC(F)(F)[C@H](C3CC3)N2)n1`, the IC50 in assay [1] amounted to 0.9 nM; in assay [2], 26.9 nM.

On to `CC(=O)N1C2CCC1CN(c1ncc(Cl)c(Nc3ccc4c(c3)c3c(c(=O)n4C)OCC(F)(F)[C@H](C4CC4)N3)n1)C2`, for which the IC50 in assay [1] worked out at 1.9 nM; in assay [2], 41 nM.

On to `Cn1c(=O)c2c(c3cc(Nc4nc(N5CC(F)(F)C5)ncc4Cl)ccc31)N[C@@H](C1CC1)C(F)(F)CO2`, for which, in assay [3], the fIC50 was 8.9 nM and the fIC90 is 50 nM.

For the compound `Cn1c(=O)c2c(c3cc(Nc4nc(N5C6CCC5COC6)ncc4Cl)ccc31)N[C@@H](C1CC1)C(F)(F)CO2`, in assay [3], the 90% effect level (IC90) was put at 3.2 nM, the fIC50 came out at 143 nM and the fIC90 amounted to 42 nM.

Take `Cn1c(=O)c2c(c3cc(Nc4ccnc(F)c4Cl)ccc31)N[C@@H](C1CC1)C(F)(F)CO2`: in assay [3], the fIC50 was determined as 6.8 nM and the fIC90 is 44 nM.

The values above are taken from ChEMBL document CHEMBL5338741, “Discovery of an In Vivo Chemical Probe for BCL6 Inhibition by Optimization of Tricyclic Quinolinones” (J Med Chem, 2023).
